Laboratory results published in the supplement of paper PMC10627819.

Key:
Experiment in all cases: Bliss interaction score (quartile over a dose matrix) (fitness difference); higher = more antagonism (negative = synergy)
[1] = system: B. subtilis 168
Summary of the method: (§1)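 The Bliss score was calculated by subtracting the expected fitness, the product of single-drug values, from the observed fitness. OD595 at entry into stationary phase, over the plate's robust no-drug mean and capped at 1, served as the fitness readout. Single-drug values were inferred from combination data, and scores are summarised by quartiles across technical, biological and donor/recipient replicates.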

[2] = system: S. aureus DSM 20231
Summary of the method: as §1

[3] = system: S. aureus Newman
Summary of the method: as §1

[4] = system: S. pneumoniae D39V
Summary of the method: as §1
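Note: first quartile when negative (synergy) and third quartile when positive (antagonism).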

SMILES | Bliss interaction score [1] | Bliss interaction score [2] | Bliss interaction score [3] | Bliss interaction score [4]
CO/N=C(\C(=O)N[C@@H]1C(=O)N2C(C(=O)[O-])=C(C[N+]3(C)CCCC3)CS[C@H]12)c1csc(N)n1 [Cefepime] + CO/N=C(\C(=O)N[C@@H]1C(=O)N2C(C(=O)O)=C(COC(N)=O)CS[C@H]12)c1ccco1 [Cefuroxime] | -0.0417 | 0.0866 | 0.0741 | -0.0435
CO/N=C(\C(=O)N[C@@H]1C(=O)N2C(C(=O)[O-])=C(C[N+]3(C)CCCC3)CS[C@H]12)c1csc(N)n1 [Cefepime] + CO[C@@H]1[C@@H](OC(N)=O)[C@@H](O)[C@H](Oc2ccc3c(O)c(NC(=O)c4ccc(O)c(CC=C(C)C)c4)c(=O)oc3c2C)OC1(C)C [Novobiocin] | -0.104 | 0.0654 | 0.0516 | -0.098
CO/N=C(\C(=O)N[C@@H]1C(=O)N2C(C(=O)[O-])=C(C[N+]3(C)CCCC3)CS[C@H]12)c1csc(N)n1 [Cefepime] + CO[C@@]12[C@H](COC(N)=O)C3=C(C(=O)C(C)=C(N)C3=O)N1C[C@@H]1N[C@@H]12 [MitomycinC] | -0.153 | -0.0534 | 0.0543 | 0.125
CO/N=C(\C(=O)N[C@@H]1C(=O)N2C(C(=O)[O-])=C(C[N+]3(C)CCCC3)CS[C@H]12)c1csc(N)n1 [Cefepime] + COc1cccc2c1C(=O)c1c(O)c3c(c(O)c1C2=O)C[C@@](O)(C(=O)CO)C[C@@H]3O[C@H]1C[C@H](N)[C@H](O)[C@H](C)O1 [Doxorubicin] | -0.239 | -0.1 | -0.0429 | 0.0847
CO/N=C(\C(=O)N[C@@H]1C(=O)N2C(C(=O)[O-])=C(C[N+]3(C)CCCC3)CS[C@H]12)c1csc(N)n1 [Cefepime] + C[C@H]1c2cccc(O)c2C(=O)C2=C(O)[C@]3(O)C(=O)C(C(N)=O)=C(O)[C@@H](N(C)C)[C@@H]3[C@@H](O)[C@@H]21 [Doxycycline] | 0.0669 | 0.119 | 0.0446 | 0.203
CO/N=C(\C(=O)N[C@@H]1C(=O)N2C(C(=O)[O-])=C(C[N+]3(C)CCCC3)CS[C@H]12)c1csc(N)n1 [Cefepime] + N[C@@H]1CONC1=O [CycloserineD] | 0.0718 | 0.0932 | -0.0561 | 0.0926
CO/N=C(\C(=O)N[C@@H]1C(=O)N2C(C(=O)[O-])=C(C[N+]3(C)CCCC3)CS[C@H]12)c1csc(N)n1 [Cefepime] + O=C(N[C@H](CO)[C@H](O)c1ccc([N+](=O)[O-])cc1)C(Cl)Cl [Chloramphenicol] | 0.109 | 0.158 | 0.0591 | 0.149
CO/N=C(\C(=O)N[C@@H]1C(=O)N2C(C(=O)[O-])=C(C[N+]3(C)CCCC3)CS[C@H]12)c1csc(N)n1 [Cefepime] + O=C(O)[C@H]1/C(=C/CO)O[C@@H]2CC(=O)N21 [Clavulanic] | -0.0808 | 0.0843 | 0.0605 | -0.0597
CO/N=C(\C(=O)N[C@@H]1C(=O)N2C(C(=O)[O-])=C(C[N+]3(C)CCCC3)CS[C@H]12)c1csc(N)n1 [Cefepime] + O=C(O)c1cn(C2CC2)c2cc(N3CCNCC3)c(F)cc2c1=O [Ciprofloxacin] | -0.193 | -0.0463 | 0.0601 | 0.147
CO/N=C(\C(=O)N[C@@H]1C(=O)N2C(C(=O)[O-])=C(C[N+]3(C)CCCC3)CS[C@H]12)c1csc(N)n1 [Cefepime] + O=C(O[C@@H]1Cc2c(O)cc(O)cc2O[C@@H]1c1cc(O)c(O)c(O)c1)c1cc(O)c(O)c(O)c1 [EGCG] | 0.0402 | -0.159 | -0.0498 | 0.0602
CO/N=C(\C(=O)N[C@@H]1C(=O)N2C(C(=O)[O-])=C(C[N+]3(C)CCCC3)CS[C@H]12)c1csc(N)n1 [Cefepime] + Oc1cc(Cl)ccc1Oc1ccc(Cl)cc1Cl [Triclosan] | 0.0502 | 0.0725 | -0.0285 | -0.0485
CCCCCCCCCC(=O)N[C@@H](Cc1c[nH]c2ccccc12)C(=O)N[C@H](CC(N)=O)C(=O)N[C@@H](CC(=O)O)C(=O)N[C@@H]1C(=O)NCC(=O)N[C@@H](CCCN)C(=O)N[C@@H](CC(=O)O)C(=O)N[C@H](C)C(=O)N[C@@H](CC(=O)O)C(=O)NCC(=O)N[C@H](CO)C(=O)N[C@@H]([C@H](C)CC(=O)O)C(=O)N[C@@H](CC(=O)c2ccccc2N)C(=O)O[C@@H]1C [Daptomycin] + CC1(C)S[C@@H]2[C@H](NC(=O)Cc3ccccc3)C(=O)N2[C@H]1C(=O)O [PenicillinG] | 0.101 | 0.0411 | 0.0645 | 0.107
CCCCCCCCCC(=O)N[C@@H](Cc1c[nH]c2ccccc12)C(=O)N[C@H](CC(N)=O)C(=O)N[C@@H](CC(=O)O)C(=O)N[C@@H]1C(=O)NCC(=O)N[C@@H](CCCN)C(=O)N[C@@H](CC(=O)O)C(=O)N[C@H](C)C(=O)N[C@@H](CC(=O)O)C(=O)NCC(=O)N[C@H](CO)C(=O)N[C@@H]([C@H](C)CC(=O)O)C(=O)N[C@@H](CC(=O)c2ccccc2N)C(=O)O[C@@H]1C [Daptomycin] + CC(=O)O[C@H]1C[C@@]2(C)[C@@H](C[C@@H](O)[C@H]3[C@@]4(C)CC[C@@H](O)[C@@H](C)[C@@H]4CC[C@@]32C)/C1=C(\CCC=C(C)C)C(=O)O [Fusidic acid] | 0.0625 | 0.0265 | -0.0422 | -0.109
CCCCCCCCCC(=O)N[C@@H](Cc1c[nH]c2ccccc12)C(=O)N[C@H](CC(N)=O)C(=O)N[C@@H](CC(=O)O)C(=O)N[C@@H]1C(=O)NCC(=O)N[C@@H](CCCN)C(=O)N[C@@H](CC(=O)O)C(=O)N[C@H](C)C(=O)N[C@@H](CC(=O)O)C(=O)NCC(=O)N[C@H](CO)C(=O)N[C@@H]([C@H](C)CC(=O)O)C(=O)N[C@@H](CC(=O)c2ccccc2N)C(=O)O[C@@H]1C [Daptomycin] + CC[C@H]1OC(=O)[C@H](C)C(=O)[C@H](C)[C@@H](O[C@@H]2O[C@H](C)C[C@H](N(C)C)[C@H]2O)[C@](C)(OC)C[C@@H](C)C(=O)[C@H](C)[C@H]2N(CCCCn3cnc(-c4cccnc4)c3)C(=O)O[C@]12C [Telithromycin] | 0.0516 | 0.0926 | 0.0361 | -0.0436
